Reference: ChEMBL document CHEMBL1129100, “Non-peptide glycoprotein IIb/IIIa inhibitors. 9. Centrally constrained alpha-sulfonamides are useful tools for exploring platelet receptor function” (Bioorg Med Chem Lett, 1996)

Key:
Homo sapiens = species on record: Homo sapiens; assay: Inhibition of human gel filtered platelet aggregation stimulated by ADP ([…]); format: functional, organism-based
[1] = target: Integrin alpha-IIb/beta-3 (Homo sapiens) (UniProt P05106+P08514); assay: Affinity for purified alpha IIb beta-3 integrin; format: protein-complex assay

| SMILES | IC50 (Homo sapiens) [nM] | ED50 [1] [nM] |
| --- | --- | --- |
| CN(C)c1cccc2c(S(=O)(=O)N[C@@H](CNC(=O)c3ccc4c(c3)C(=O)N(CCC3CCNCC3)C4)C(=O)O)cccc12 | 12 | 2.1 |
| CCCCS(=O)(=O)N[C@@H](Cc1ccc(OCCCCC2CCNCC2)cc1)C(=O)O [TIROFIBAN] | 18 | 0.9 |
| O=C(O)CCNC(=O)c1ccc2c(c1)C(=O)N(CCC1CCNCC1)C2 | 27 | 12 |
| O=C(O)C1=C/C(=N\C(S)=N\CCS(=O)(=O)N[C@@H](CNC(=O)c2ccc3c(c2)C(=O)N(CCC2CCNCC2)C3)C(=O)O)C=CC1=C1c2ccc(O)cc2Oc2cc(O)ccc21 | 31 | 1.9 |
